Test results published in ChEMBL document CHEMBL3860071, “Discovery and structure-activity relationship studies of quinolinone derivatives as potent IL-2 suppressive agents” (Bioorg Med Chem, 2016).

How the values were obtained:
Jurkat [1] = experiment: Immunosuppressive activity in human PMA/ionomycin stimulated Jurkat T cells assessed as suppression of IL2 production at 1 uM pretreated with cells followed by PMA/ionomycin stimulation measured after 13 hrs by ELISA; type: functional
[2] = Cytotoxicity against human Jurkat T cells assessed as cell survival at 10 uM measured after 3 days by MTT assay; type: toxicity, cell-based; conditions: read-out: Survival
Jurkat [3] = experiment: Immunosuppressive activity in human PMA/ionomycin stimulated Jurkat T cells assessed as suppression of IL2 production pretreated with cells followed by PMA/ionomycin stimulation measured after 13 hrs by ELISA; type: functional, cell-based
Jurkat [4] = experiment: Immunosuppressive activity in human PMA/ionomycin stimulated Jurkat T cells assessed as suppression of IL2 production at 10 uM pretreated with cells followed by PMA/ionomycin stimulation measured after 13 hrs by ELISA; type: functional

Row | Structure (SMILES) | inhibition at 1 µM (Jurkat [1]) | viability at 72 h, 10 µM [2] | IC50 (Jurkat [3]) | inhibition at 10 µM (Jurkat [4])
1 | N#Cc1ccc(Cn2c(=O)c(C(=O)NCCc3ccccc3)cc3c([N+](=O)[O-])cccc32)cc1 | 28% | 95% |  | 
2 | O=C(NCCc1ccccc1)c1cc2c([N+](=O)[O-])cccc2n(Cc2ccc(F)cc2)c1=O |  | 98% | 720 nM | 
3 | COc1ccc(Cn2c(=O)c(C(=O)NCc3ccccc3)cc3c(N)cccc32)cc1 | 30% | 98% |  | 
4 | COc1ccc(Cn2c(=O)c(C(=O)NCCc3ccccc3)cc3ccc([N+](=O)[O-])cc32)cc1 |  | 95% |  | 
5 | CCN(C(=O)c1c(O)c2c(Cl)cccc2n(C)c1=O)c1ccccc1 [LAQUINIMOD] |  |  |  | 16%
6 | CCc1ccc(Cn2c(=O)c(C(=O)NCCc3ccccc3)cc3c(Cl)cccc32)cc1 |  | 97% | 401 nM | 
7 | COc1ccc(CCNC(=O)c2cc3c(N)cccc3n(Cc3ccc(OC)cc3)c2=O)cc1 | 25% | 96% |  | 
8 | O=C(NCCc1ccccc1)c1cc2c([N+](=O)[O-])cccc2n(Cc2ccc(Br)cc2)c1=O |  | 64% | 780 nM | 
9 | COc1ccc(Cn2c(=O)c(C(=O)NCCc3ccc(O)cc3)cc3c(N)cccc32)cc1 | 20% | 97% |  | 
10 | O=C(NCCc1ccccc1)c1cc2c([N+](=O)[O-])cccc2n(Cc2ccc(Cl)cc2)c1=O | 39% | 97% |  | 
11 | Cc1ccc(Cn2c(=O)c(C(=O)NCCc3ccccc3)cc3c([N+](=O)[O-])cccc32)cc1 |  | 81% |  | 
12 | O=C(NCCc1ccccc1)c1cc2c([N+](=O)[O-])cccc2n(Cc2ccc([N+](=O)[O-])cc2)c1=O |  | 97% | 353 nM | 
13 | COc1cccc(Cn2c(=O)c(C(=O)NCCc3ccccc3)cc3c([N+](=O)[O-])cccc32)c1 | 16% | 97% |  | 
14 | COc1ccc(Cn2c(=O)c(C(=O)NCCc3ccccc3)cc3c(N)cccc32)cc1 | 41% | 98% |  | 
15 | COc1ccc(Cn2c(=O)c(C(=O)NCCc3ccc(C)cc3)cc3c(N)cccc32)cc1 |  | 99% |  | 
16 | COc1ccc(Cn2c(=O)c(C(=O)NCCc3ccncc3)cc3c(N)cccc32)cc1 | 16% | 93% |  | 
17 | COCCCNC(=O)c1cc2c(N)cccc2n(Cc2ccc(OC)cc2)c1=O |  | 97% |  | 
